Measurements: patent US20190169221A1, “SUBSTITUTED NUCLEOSIDES, NUCLEOTIDES AND ANALOGS THEREOF” (Janssen BioPharma, Inc., priority 2016, published 2019)
Read-outs that look alike come from different tables or passages of the source.

Legend:
[1] = test system: Dengue virus type 2 strain New Guinea C (NG-C); experiment: Dengue viral assay (cytopathic effect, Huh-7.5 cells); format: cell-based; details: read-out: Dengue NGC EC50
Description: The Dengue virus type 2 strain New Guinea C (NG-C) and the Dengue virus type 4 strain H241 were purchased from ATCC (Manassas, Va.; item numbers VR-1584 and VR-1490, respectively). The Zika virus strain MR766 was purchased from ATCC (item #VR-1838) and the Zika virus strain IbH 30656 was purchased from BEI Resources (Manassas, Va.; item number NR-500066). 24 h prior to dosing, Huh-7.5 cells were plated in 96 well plates at a density of 1.5×10^5/mL in DMEM medium supplemented with 10% fetal bovine serum, 1% HEPES buffer, 1% Penicillin/Streptomycin and 1% non-essential amino acids (all Mediatech, Manassas, Va.). At the day of infection, serially diluted compounds were added to cells and incubated for 24 h. After the end of the 24 h pre-incubation period, cells were infected with either Dengue virus type 2 NG-C, Dengue virus type 4 H241, Zika virus strain MR766 or Zika virus strain IbH 30656. The virus inoculum was selected to cause 80-90% cytopathic effect in four (Zika) to five (Dengue) days. Infected cells were incubated for four to five days at 37° C., 5% CO2. To develop the assay, 100 μL media was replaced with 100 μl CellTiter-Glo® reagent (Promega, Madison, Wis.) and incubated for 10 mins at R.T. Luminescence was measured on a Victor ×3 multi-label plate reader. Potential compound cytotoxicity was determined using uninfected parallel cultures.

[2] = test system: Human rhinovirus 1B; experiment: Picornavirus / enterovirus assay, HRV 1B (HeLa-OHIO cells); format: cell-based; details: read-out: HRV 1B EC50
[3] = target: human rhinovirus 16 polymerase (HRV16pol) (Human rhinovirus 16, UniProt Q82122); experiment: Picornavirus polymerase inhibition assay; format: biochemical; details: triphosphates, read-out: Viral Polymerase Inhibition IC50 Picornavirus
human rhinovirus 16 polymerase (HRV16pol), sequence (Q82122 1694-2153 limits assumed): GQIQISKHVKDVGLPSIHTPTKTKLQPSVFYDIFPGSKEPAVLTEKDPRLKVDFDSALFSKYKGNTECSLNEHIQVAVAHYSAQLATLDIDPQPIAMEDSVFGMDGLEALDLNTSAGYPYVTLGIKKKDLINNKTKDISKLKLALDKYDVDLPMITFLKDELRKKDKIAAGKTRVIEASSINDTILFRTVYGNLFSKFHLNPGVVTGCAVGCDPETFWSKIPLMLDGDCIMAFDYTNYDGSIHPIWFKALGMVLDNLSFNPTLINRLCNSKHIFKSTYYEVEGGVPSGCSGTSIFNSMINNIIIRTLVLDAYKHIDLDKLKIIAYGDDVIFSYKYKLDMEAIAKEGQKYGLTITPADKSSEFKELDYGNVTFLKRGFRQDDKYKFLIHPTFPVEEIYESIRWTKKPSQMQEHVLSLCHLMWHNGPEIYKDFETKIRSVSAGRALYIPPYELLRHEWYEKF
Description: The enzyme activity of human rhinovirus 16 polymerase (HRV16pol) was measured as an incorporation of tritiated NMP into acid-insoluble RNA products. hV16pol assay reactions contained […] recombinant enzyme, 50 nM heteropolymeric RNA, about 0.5 μCi tritiated NTP, 0.1 mM of competing cold NTP, 40 mM Tris-HCl (pH 7.0), […] dithiothreitol and 0.5 mM MgCl2. Standard reactions were incubated for 2.5 h at 30° C., in the presence of increasing concentration of inhibitor. At the end of the reaction, RNA was precipitated with 10% TCA and acid-insoluble RNA products were filtered on a size exclusion 96-well plate. After washing of the plate, scintillation liquid was added and radiolabeled RNA products were detected using standard procedures with a Trilux Microbeta scintillation counter. The compound concentration at which the enzyme-catalyzed rate was reduced by 50% (IC50) was calculated by fitting the data to a non-linear regression (sigmoidal).

[4] = target: Dengue viral polymerase (Dengue virus type 2, UniProt P14340); experiment: biochemical; details: triphosphates; read-out: Viral Polymerase Inhibition IC50 Dengue
[5] = target: NS5B-BK (Delta-21) (Hepatitis C virus genotype 1b, UniProt P26663); experiment: biochemical; set-up: species or system HCV
NS5B-BK (Delta-21), sequence (P26663 2420-2989 limits assumed): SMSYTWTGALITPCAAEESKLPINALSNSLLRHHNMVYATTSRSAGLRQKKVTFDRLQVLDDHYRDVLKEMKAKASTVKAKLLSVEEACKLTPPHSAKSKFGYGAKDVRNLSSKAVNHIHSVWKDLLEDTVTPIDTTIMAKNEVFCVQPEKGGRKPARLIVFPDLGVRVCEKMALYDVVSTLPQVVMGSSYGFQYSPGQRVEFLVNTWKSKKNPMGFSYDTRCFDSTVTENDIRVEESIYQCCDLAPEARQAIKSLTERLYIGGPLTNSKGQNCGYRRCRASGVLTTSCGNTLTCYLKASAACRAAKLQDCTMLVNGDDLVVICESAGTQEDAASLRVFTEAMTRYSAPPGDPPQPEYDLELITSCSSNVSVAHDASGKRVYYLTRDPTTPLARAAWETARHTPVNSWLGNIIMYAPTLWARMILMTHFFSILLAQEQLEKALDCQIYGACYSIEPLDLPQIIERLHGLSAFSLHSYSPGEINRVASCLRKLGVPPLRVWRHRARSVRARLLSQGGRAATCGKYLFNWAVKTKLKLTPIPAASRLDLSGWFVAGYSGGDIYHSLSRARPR

[6] = Huh7.5, Dengue virus type 2 (NG-C strain)
[7] = Rhinovirus A, HeLa-OHIO cells, 33° C.
[8] = Dengue virus type 2 (NG-C strain)

C#C[C@]1(O)[C@H](n2ccc3c(N)ncnc32)O[C@](F)(CO)[C@H]1O [Compound 6, (2S,3S,4R,5R)-5-(4-amino-7H-pyrrolo[2,3-d]pyrimidin-7-yl)-4-ethynyl-2-fluoro-2-(hydroxymethyl)tetrahydrofuran-3,4-diol]
EC50 [1, 6]: 3 to 30 µM | EC50 [2, 7]: < 3 µM

C#C[C@]1(O)[C@H](n2cc(C#N)c3c(N)ncnc32)O[C@](F)(COP(=O)(O)OP(=O)(O)OP(=O)(O)O)[C@H]1O [Compound 45]
IC50 [3]: < 3 µM | IC50 [4]: < 3 µM | IC50 [5]: < 3 µM

C#C[C@@]1(O)[C@H](O)[C@@H](CO)O[C@H]1n1cnc2c(N)nc(F)nc21 [Compound 4, (2R,3R,4R,5R)-2-(6-amino-2-fluoro-9H-purin-9-yl)-3-ethynyl-5-(hydroxymethyl)tetrahydrofuran-3,4-diol]
EC50 [1, 6]: > 100 µM | EC50 [2, 7]: 3 to 30 µM

C#C[C@]1(O)[C@H](n2cnc3c(N)nc(F)nc32)O[C@](F)(COP(=O)(O)OP(=O)(O)OP(=O)(O)O)[C@H]1O [Compound 57]
IC50 [3]: < 3 µM | IC50 [4]: < 3 µM | IC50 [5]: < 3 µM

C#C[C@]1(O)[C@H](n2cc(C(N)=O)c3c(N)ncnc32)O[C@](F)(COP(=O)(O)OP(=O)(O)OP(=O)(O)O)[C@H]1O [Compound 50]
IC50 [3]: < 3 µM | IC50 [4]: < 3 µM | IC50 [5]: 3 to 30 µM

C#C[C@@]1(O)[C@H](O)[C@@H](COP(=O)(O)OP(=O)(O)OP(=O)(O)O)O[C@H]1c1ccc2c(N)ncnn12 [Compound 52]
IC50 [3]: < 3 µM | IC50 [4]: < 3 µM | IC50 [5]: < 3 µM

C#C[C@]1(O)[C@H](n2cnc3c(N)ncnc32)O[C@](F)(COC(=O)CCCCCCCCC)[C@H]1O [Compound 44, ((2S,3S,4R,5R)-5-(6-amino-9H-purin-9-yl)-4-ethynyl-2-fluoro-3,4-dihydroxytetrahydrofuran-2-yl)methyldecanoate]
EC50 [1, 6]: < 3 µM | EC50 [2, 7]: < 3 µM

C#C[C@@]1(F)[C@H](O)[C@@H](COP(=O)(O)OP(=O)(O)OP(=O)(O)O)O[C@H]1c1cnc2c(N)ncnn12 [Compound 54]
IC50 [3]: 30 to 100 µM | IC50 [4]: 30 to 100 µM | IC50 [5]: < 3 µM

C[C@]1(O)[C@H](n2cnc3c(N)ncnc32)O[C@](F)(COP(=O)(O)OP(=O)(O)OP(=O)(O)O)[C@H]1O [Compound 20]
IC50 [3]: < 3 µM | IC50 [4]: 3 to 30 µM | IC50 [5]: < 3 µM

C#C[C@@]1(O)[C@H](O)[C@@H](COP(=O)(O)OP(=O)(O)OP(=O)(O)O)O[C@H]1n1cc(F)c2c(N)ncnc21 [Compound 58]
IC50 [3]: < 3 µM | IC50 [4]: < 3 µM | IC50 [5]: < 3 µM

C#C[C@]1(O)[C@H](n2cnc3c(N)ncnc32)O[C@](F)(COC(=O)CCC)[C@H]1OC(=O)CCC [Compound 37, (2S,3S,4R,5R)-5-(6-amino-9H-purin-9-yl)-2-((butyryloxy)methyl)-4-ethynyl-2-fluoro-4-hydroxytetrahydrofuran-3-ylbutyrate]
EC50 [1, 6]: < 3 µM | EC50 [2, 7]: < 3 µM

C#C[C@]1(O)[C@H](n2cnc3c(N)ncnc32)O[C@](F)(CO)[C@H]1OC(=O)CCCCCCCCC [Compound 39, (2S,3S,4R,5R)-5-(6-amino-9H-purin-9-yl)-4-ethynyl-2-fluoro-4-hydroxy-2-(hydroxymethyl)tetrahydrofuran-3-yldecanoate]
EC50 [1, 6]: < 3 µM | EC50 [2, 7]: < 3 µM

C#C[C@]1(O)[C@H](n2cnc3c(N)ncnc32)O[C@](F)(COC(=O)CC)[C@H]1OC(=O)CC [Compound 36]
EC50 [1, 6]: < 3 µM | EC50 [2, 7]: < 3 µM

C#C[C@]1(OC(=O)CC)[C@H](n2cnc3c(N)ncnc32)O[C@](F)(COC(=O)CC)[C@H]1OC(=O)CC [Compound 38, (2S,3S,4R,5R)-5-(6-amino-9H-purin-9-yl)-4-ethynyl-2-fluoro-2-((propionyloxy)methyl)tetrahydrofuran-3,4-diyldipropionate]
EC50 [1, 6]: < 3 µM | EC50 [2, 7]: < 3 µM

C#C[C@]1(O)[C@H](n2cnc3c(N)ncnc32)O[C@](F)(CO)[C@H]1OC(=O)[C@@H](N)C(C)C [Compound 41, (2S,3S,4R,5R)-5-(6-amino-9H-purin-9-yl)-4-ethynyl-2-fluoro-4-hydroxy-2-(hydroxymethyl)tetrahydrofuran-3-yl L-valinate]
EC50 [1, 6]: < 3 µM | EC50 [2, 7]: < 3 µM

C#C[C@]1(O)[C@H](n2cnc3c(N)ncnc32)O[C@](F)(COC(C)=O)[C@H]1OC(C)=O [Compound 2, ((2S,3S,4R,5R)-3-acetoxy-5-(6-amino-9H-purin-9-yl)-4-ethynyl-2-fluoro-4-hydroxytetrahydrofuran-2-yl)methyl acetate]
EC50 [1, 6]: < 3 µM | EC50 [2, 7]: < 3 µM

C#C[C@]1(O)[C@H](n2cc(C(N)=O)c3c(N)ncnc32)O[C@](F)(CO)[C@H]1O [Compound 10, 4-amino-7-((2R,3R,4S,5S)-3-ethynyl-5-fluoro-3,4-dihydroxy-5-(hydroxymethyl)tetrahydrofuran-2-yl)-7H-pyrrolo[2,3-d]pyrimidine-5-carboxamide]
EC50 [1, 6]: 3 to 30 µM | EC50 ([2]; Rhinovirus A): > 100 µM

C#C[C@]1(O)[C@H](n2cnc3c(N)ncnc32)O[C@](F)(CO)[C@H]1OC(=O)NCCC [Compound 49, (2S,3S,4R,5R)-5-(6-amino-9H-purin-9-yl)-4-ethynyl-2-fluoro-4-hydroxy-2-(hydroxymethyl)tetrahydrofuran-3-ylpropylcarbamate]
EC50 [1, 8]: 30 to 100 µM | EC50 ([2]; HeLa-OHIO cells, 33° C.): 3 to 30 µM

C#C[C@]1(O)[C@H](n2cnc3c(NC(=O)OC(C)(C)C)ncnc32)O[C@](F)(COC(c2ccccc2)(c2ccccc2)c2ccc(OC)cc2)[C@H]1OC(=O)CCCCCCC [Compound 40]
EC50 [1, 8]: < 3 µM | EC50 ([2]; HeLa-OHIO cells, 33° C.): < 3 µM

C#C[C@]1(O)[C@H](n2cnc3c(N)ncnc32)O[C@](F)(COC(=O)C(C)C)[C@H]1OC(=O)C(C)C [Compound 3, (2S,3S,4R,5R)-5-(6-amino-9H-purin-9-yl)-4-ethynyl-2-fluoro-4-hydroxy-2-((isobutyryloxy)methyl)tetrahydrofuran-3-ylisobutyrate]
EC50 [1, 6]: < 3 µM | EC50 [2, 7]: < 3 µM

C#C[C@@]1(O)[C@H](O)[C@@H](CO)O[C@H]1c1cnc2c(N)ncnn12 [Compound 27, (2S,3R,4R,5R)-2-(4-aminoimidazo[2,1-f][1,2,4]triazin-7-yl)-3-ethynyl-5-(hydroxymethyl)tetrahydrofuran-3,4-diol]
EC50 [1, 6]: < 3 µM | EC50 [2, 7]: < 3 µM

(2S,3S,4R,5R)-5-(4-amino-5-fluoro-7H-pyrrolo[2,3-d]pyrimidin-7-yl)-4-ethynyl-2-fluoro-2-(hydroxymethyl)tetrahydrofuran-3,4-diol [Compound 31]
EC50 [1, 8]: < 3 µM | EC50 ([2]; HeLa-OHIO cells, 33° C.): < 3 µM

C#C[C@]1(O)[C@H](n2cnc3c(NC(=O)OC(C)(C)C)ncnc32)O[C@](F)(COC(c2ccccc2)(c2ccccc2)c2ccc(OC)cc2)[C@H]1OC(=O)CCCCCCCCCCC [Compound 42, (2S,3S,4R,5R)-5-(6-((tert-butoxycarbonyl)amino)-9H-purin-9-yl)-4-ethynyl-2-fluoro-4-hydroxy-2-(((4-methoxyphenyl)diphenylmethoxy)methyl)tetrahydrofuran-3-yl-dodecanoate]
EC50 [1, 6]: < 3 µM | EC50 [2, 7]: < 3 µM

C#C[C@]1(OC(C)=O)[C@H](n2cnc3c(N)ncnc32)O[C@](F)(COC(C)=O)[C@H]1OC(C)=O [Compound 34, (2S,3S,4R,5R)-2-(acetoxymethyl)-5-(6-amino-9H-purin-9-yl)-4-ethynyl-2-fluorotetrahydrofuran-3,4-diyldiacetate]
EC50 [1, 8]: < 3 µM | EC50 ([2]; HeLa-OHIO cells, 33° C.): < 3 µM

C[C@@]1(O)[C@H](O)[C@@H](CO)O[C@H]1n1cnc2c(N)nc(F)nc21 [Compound 16]
EC50 [1, 6]: > 100 µM | EC50 [2, 7]: 3 to 30 µM
